Data taken from patent US9133218B2, “Pesticidally active pyridyl- and pyrimidyl-substituted thiazole derivatives” (Syngenta Participations AG, priority 2012, dated 2015).

What was measured:
Format in all cases: in vivo
[1] = test system: Bemisia tabaci (Cotton White Fly); test: Activity against Bemisia tabaci (cotton white fly), cotton leaf disc spray test; settings: foliar, 144 h, 200 ppm, adults, 6 days after infestation, read-out: activity (mortality and special effects) against Bemisia tabaci
Method: Activity Against Bemisia tabaci (Cotton White Fly)
Cotton leaf discs were placed on agar in a 24-well microtiter plate and sprayed with test solutions. After drying, the leaf discs were infested with 12 to 18 adults. After an incubation period of 6 days after infestation, samples were checked for mortality and special effects (e.g. phytotoxicity).

[2] = test system: Myzus persicae (Green Peach Aphid); test: Activity against Myzus persicae (green peach aphid), sunflower leaf disc spray test; settings: foliar, 144 h, 200 ppm, mixed-age aphid population, 6 days incubation, read-out: activity (mortality) against Myzus persicae
From the text: Activity Against Myzus persicae (Green Peach Aphid)

[3] = test system: Heliothis virescens (Tobacco Budworm); test: Activity against Heliothis virescens (tobacco budworm), eggs on artificial diet; settings: eggs 0-24 h old, 4 days incubation, read-out: activity (egg mortality, larval mortality, growth regulation) against Heliothis virescens
Method: Activity Against Heliothis virescens (Tobacco Budworm)
Eggs (0-24 h old) are placed in 24-well microtiter plate on artificial diet and treated with test solutions by pipetting. After an incubation period of 4 days, samples are checked for egg mortality, larval mortality, and growth regulation.

[4] = test system: Frankliniellaoccidentalis (Western Flower Thrips); test: Activity against Frankliniella occidentalis (western flower thrips), sunflower leaf disc spray test; settings: foliar, 168 h, mixed-age population, 7 days after treatment, read-out: activity (mortality and special effects) against Frankliniella occidentalis
Method: Activity Against Frankliniellaoccidentalis (Western Flower Thrips)
Sunflower leaf discs are placed on agar in a 24-well microtiter plate and sprayed with test solutions. After drying, the leaf discs are infested with a Frankliniella population of mixed ages. After an incubation period of 7 days after treatment, samples are checked for mortality and special effects (e.g. phytotoxicity).

Measured: mortality at 200 ppm

CO/N=C1\CCCc2ccc(-c3cnc(-c4cccnc4)s3)nc21 [Compound 1.002]
> 80%: all assays above
